Publication PMC7006757, “Design, synthesis and in vitro biological evaluation of quinazolinone derivatives as EGFR inhibitors for antitumor treatment” (Journal of Enzyme Inhibition and Medicinal Chemistry, 2020)

Columns and labels:
EGFR^wt-TK = target: T1, EGFR^wt-TK (Homo sapiens, UniProt P00533); assay: In vitro EGFR^wt-TK assay (ELISA with recombinant EGFR); assay type: biochemical; conditions: mean ± SD of three replicates; for inhibition at 1 µM: read-out: EGFR^wt-TK inhibition rate (%, 1 μM)
T1 construct: purchased Sino Biology Inc
T1 sequence (P00533 25-1210): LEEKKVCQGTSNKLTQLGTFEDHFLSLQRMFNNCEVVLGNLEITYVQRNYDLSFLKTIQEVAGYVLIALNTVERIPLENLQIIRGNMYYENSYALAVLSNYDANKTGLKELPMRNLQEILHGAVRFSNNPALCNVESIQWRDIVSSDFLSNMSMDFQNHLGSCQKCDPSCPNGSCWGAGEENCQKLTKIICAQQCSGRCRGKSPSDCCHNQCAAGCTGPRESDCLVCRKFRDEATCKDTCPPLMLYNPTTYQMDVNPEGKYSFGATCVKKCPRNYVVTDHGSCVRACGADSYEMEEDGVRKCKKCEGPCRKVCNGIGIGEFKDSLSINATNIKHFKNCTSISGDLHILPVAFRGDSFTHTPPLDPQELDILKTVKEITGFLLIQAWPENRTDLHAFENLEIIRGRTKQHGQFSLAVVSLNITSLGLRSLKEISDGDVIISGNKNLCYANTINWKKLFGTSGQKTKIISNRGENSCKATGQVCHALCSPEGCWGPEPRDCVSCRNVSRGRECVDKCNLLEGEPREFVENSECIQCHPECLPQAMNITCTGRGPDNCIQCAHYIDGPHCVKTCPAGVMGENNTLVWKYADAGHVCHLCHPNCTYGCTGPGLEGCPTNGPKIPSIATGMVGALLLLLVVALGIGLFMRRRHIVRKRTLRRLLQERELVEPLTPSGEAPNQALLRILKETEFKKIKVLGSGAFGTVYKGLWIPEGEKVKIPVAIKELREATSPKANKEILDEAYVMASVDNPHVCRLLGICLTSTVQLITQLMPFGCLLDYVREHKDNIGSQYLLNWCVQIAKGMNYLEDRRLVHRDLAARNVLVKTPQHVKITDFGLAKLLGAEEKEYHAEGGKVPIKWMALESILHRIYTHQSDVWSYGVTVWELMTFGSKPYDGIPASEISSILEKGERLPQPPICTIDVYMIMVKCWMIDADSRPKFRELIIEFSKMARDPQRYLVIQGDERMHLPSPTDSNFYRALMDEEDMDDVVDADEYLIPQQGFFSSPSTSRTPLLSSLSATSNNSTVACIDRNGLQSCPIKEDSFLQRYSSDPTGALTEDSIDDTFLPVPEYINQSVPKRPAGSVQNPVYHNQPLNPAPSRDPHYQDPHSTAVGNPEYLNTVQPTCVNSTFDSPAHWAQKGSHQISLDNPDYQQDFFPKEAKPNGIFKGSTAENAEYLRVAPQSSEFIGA
Procedure: Recombinant EGFR was purchased from Sino Biology Inc. Antiphosphotyrosine mouse mAb was purchased from PTM Bio. The effects of compounds on the activity of wild type EGFR tyrosine kinase were determined by enzyme-linked immunosorbent assays (ELISAs) with recombinant EGFR according to reported methods.

A549 cells [1] = assay: MTT assay, A549; conditions: Homo sapiens; for IC50: A549, read-out: IC50 (μM) A549; for inhibition at 10 µM: A549, read-out: Inhibition rate (%, 10 μM) A549
PC-3 cells = assay: MTT assay, PC-3; conditions: Homo sapiens; for IC50: PC-3, read-out: IC50 (μM) PC-3; for inhibition at 10 µM: PC-3, read-out: Inhibition rate (%, 10 μM) PC-3
SMMC-7721 cells = assay: MTT assay, SMMC-7721; conditions: Homo sapiens; for IC50: SMMC-7721, read-out: IC50 (μM) SMMC-7721; for inhibition at 10 µM: SMMC-7721, read-out: Inhibition rate (%, 10 μM) SMMC-7721
A549 cells [2] = assay: Cell apoptosis analysis, Annexin V-FITC/PI flow cytometry; assay type: cell-based, human; conditions: A549, 5, 10, 20 μM, 48 h
A549 cells [3] = assay: Cell cycle analysis, PI flow cytometry; assay type: cell-based, human; conditions: for Percentage of cells in G0/G1 / Percentage of cells in G2/M / Percentage of cells in S: 48 h
EGFR = conditions: Figure 2; read-out: Reported EGFR inhibitors: IC50; cited from earlier work

Row | Structure (SMILES) | inhibition at 1 µM (EGFR^wt-TK) | inhibition at 10 µM (A549 cells [1]) | inhibition at 10 µM (PC-3 cells) | inhibition at 10 µM (SMMC-7721 cells) | melting point | further results
1 | O=c1[nH]cc(F)c(=O)[nH]1 [5-Fluorouracil, reference compound] | 63.4 ± 1.69% | 40.4 ± 1.15% | 29.3 ± 1.24% | 29.1 ± 2.75% |  | IC50 (EGFR^wt-TK): 0.14 ± 0.011 µM; IC50 (A549 cells [1]): 1.53 ± 0.72 µM; IC50 (PC-3 cells): 22.5 ± 0.74 µM; IC50 (SMMC-7721 cells): 11.4 ± 1.95 µM
2 | Cn1c(COc2ccc(/C=N/c3ccccc3)cc2)nc2ccccc2c1=O [5a, (E)-3-methyl-2-((4-((phenylimino)methyl)phenoxy)methyl)quinazolin-4(3H)-one] | 1.91 ± 0.91% | 15.4 ± 1.52% | 7.36 ± 2.38% | 15.1 ± 5.91% | 150 to 152 °C | 
3 | Cc1ccccc1/N=C/c1ccc(OCc2nc3ccccc3c(=O)n2C)cc1 [5b, (E)-3-methyl-2-((4-((o-tolylimino)methyl)phenoxy)methyl)quinazolin-4(3H)-one] | 2.57 ± 1.25% | 14.5 ± 4.09% | 23.9 ± 8.59% | 24.3 ± 1.7% | 162 to 164 °C | 
4 | Cc1ccc(/N=C/c2ccc(OCc3nc4ccccc4c(=O)n3C)cc2)cc1 [5c, (E)-3-methyl-2-((4-((p-tolylimino)methyl)phenoxy)methyl)quinazolin-4(3H)-one] | 50.8 ± 3.29% | 12.1 ± 2% | 7.46 ± 0.52% | 31.8 ± 9.91% | 182 to 184 °C | 
5 | COc1ccccc1/N=C/c1ccc(OCc2nc3ccccc3c(=O)n2C)cc1 [5d, (E)-2-((4-(((2-methoxyphenyl)imino)methyl)phenoxy)methyl)-3-methylquinazolin-4(3H)-one] | 38.7 ± 1.83% | 20.8 ± 4.81% | 38.2 ± 1.4% | 2.78 ± 4.23% | 141 to 143 °C | 
6 | COc1ccc(/N=C/c2ccc(OCc3nc4ccccc4c(=O)n3C)cc2)cc1 [5e, (E)-2-((4-(((4-methoxyphenyl)imino)methyl)phenoxy)methyl)-3-methylquinazolin-4(3H)-one] | 53.6 ± 1.25% | 25.9 ± 7.46% | 40.2 ± 3.57% | 20.1 ± 9.11% | 180 to 182 °C | 
7 | Cn1c(COc2ccc(/C=N/c3ccccc3F)cc2)nc2ccccc2c1=O [5f, (E)-2-((4-(((2-fluorophenyl)imino)methyl)phenoxy)methyl)-3-methylquinazolin-4 (3H)-one] | 1.31 ± 3.64% | 16.3 ± 1.43% | 5.46 ± 0.28% | 2.65 ± 1.81% | 143 to 145 °C | 
8 | Cn1c(COc2ccc(/C=N/c3cccc(F)c3)cc2)nc2ccccc2c1=O [5g, (E)-2-((4-(((3-fluorophenyl)imino)methyl)phenoxy)methyl)-3-methylquinazolin-4(3H)-one] | 65 ± 1.51% | 15.6 ± 2.56% | 4.76 ± 0.51% | 35.6 ± 1.27% | 168 to 170 °C | IC50 (EGFR^wt-TK): 0.047 ± 0.004 µM; IC50 (A549 cells [1]): 19.7 ± 2.34 µM; IC50 (PC-3 cells): 30.1 ± 1.86 µM; IC50 (SMMC-7721 cells): 35.9 ± 5.85 µM
9 | Cn1c(COc2ccc(/C=N/c3ccc(F)cc3)cc2)nc2ccccc2c1=O [5h, (E)-2-((4-(((4-fluorophenyl)imino)methyl)phenoxy)methyl)-3-methylquinazolin-4(3H)-one] | 56.2 ± 2.16% | 14.8 ± 5.06% | 14.8 ± 2.3% | 22.9 ± 1.66% | 200 to 202 °C | 
10 | Cn1c(COc2ccc(/C=N/c3cccc(Cl)c3)cc2)nc2ccccc2c1=O [5i, (E)-2-((4-(((3-chlorophenyl)imino)methyl)phenoxy)methyl)-3-methylquinazolin-4(3H)-one] | 1.04 ± 0.91% | 23.3 ± 7.52% | 9.6 ± 2.69% | 13.1 ± 2.92% | 179 to 181 °C | 
11 | Cn1c(COc2ccc(/C=N/c3cccc(Br)c3)cc2)nc2ccccc2c1=O [5j, (E)-2-((4-(((3-bromophenyl)imino)methyl)phenoxy)methyl)-3-methylquinazolin-4(3H)-one] | 53.3 ± 1.58% | 18 ± 6.69% | 17.9 ± 6.12% | 18.6 ± 1.51% | 176 to 178 °C | 
12 | Cn1c(COc2ccc(/C=N/c3ccc(F)c(F)c3)cc2)nc2ccccc2c1=O [5k, (E)-2-((4-(((3,4-difluorophenyl)imino)methyl)phenoxy)methyl)-3-methylquinazolin-4(3H)-one] | 63.4 ± 1.83% | 27 ± 1.63% | 57.5 ± 2.77% | 34.9 ± 4.72% | 152 to 154 °C | IC50 (EGFR^wt-TK): 0.01 ± 0.001 µM; Induction of apoptosis in A549 cells (A549 cells [2]): induces cellular apoptosis in a concentration-dependent way; Percentage of cells in G0/G1 (A549 cells [3]; A549, 5 μM): 61.23%; Percentage of cells in G2/M (A549 cells [3]; A549, 5 μM): 25.31%; Percentage of cells in S (A549 cells [3]; A549, 5 μM): 13.46%; Percentage of cells in G0/G1 (A549 cells [3]; A549, 10 μM): 62.42%; Percentage of cells in G2/M (A549 cells [3]; A549, 10 μM): 23.10%; Percentage of cells in S (A549 cells [3]; A549, 10 μM): 14.48%; Cell cycle arrest of A549 cells (A549 cells [3]; A549, 48 h): arrested in the G2/M phase; IC50 (A549 cells [1]): 12.3 ± 4.12 µM; IC50 (PC-3 cells): 17.1 ± 3.61 µM; IC50 (SMMC-7721 cells): 15.7 ± 1.64 µM
13 | Cn1c(COc2ccc(/C=N/c3cc(F)cc(F)c3)cc2)nc2ccccc2c1=O [5l, (E)-2-((4-(((3,5-difluorophenyl)imino)methyl)phenoxy)methyl)-3-methylquinazolin-4(3H)-one] | 61.9 ± 1.51% | 31.2 ± 2.49% | 54.3 ± 7.59% | 41 ± 2.63% | 220 to 221 °C | IC50 (EGFR^wt-TK): 0.54 ± 0.031 µM; IC50 (A549 cells [1]): 7.22 ± 3.51 µM; IC50 (PC-3 cells): 13.3 ± 1.12 µM; IC50 (SMMC-7721 cells): 6.04 ± 0.55 µM
14 | Cn1c(COc2ccc(/C=N/c3c(F)cccc3F)cc2)nc2ccccc2c1=O [5m, (E)-2-((4-(((2,6-difluorophenyl)imino)methyl)phenoxy)methyl)-3-methylquinazolin-4(3H)-one] | 25.8 ± 1.92% | 15.2 ± 3.61% | 26.8 ± 0.59% | 15.1 ± 5.79% | 181 to 183 °C | 
15 | Cn1c(COc2ccc(/C=N/c3ccc(F)cc3F)cc2)nc2ccccc2c1=O [5n, (E)-2-((4-(((2,4-difluorophenyl)imino)methyl)phenoxy)methyl)-3-methylquinazolin-4(3H)-one] | 48.4 ± 0.35% | 33.3 ± 3.63% | 25.8 ± 4.84% | 11.5 ± 2.87% | 181 to 183 °C | 
16 | Cn1c(COc2ccc(/C=N/c3ccc(F)c(Cl)c3)cc2)nc2ccccc2c1=O [5o, (E)-2-((4-(((3-chloro-4-fluorophenyl)imino)methyl)phenoxy)methyl)-3-methyl quinazolin-4(3H)-one] | 16.7 ± 2.99% | 18.7 ± 9.78% | 13.9 ± 0.92% | 24.5 ± 1.37% | 188 to 189 °C | 
17 | Cn1c(COc2ccc(/C=N/c3ccc(Cl)c(C(F)(F)F)c3)cc2)nc2ccccc2c1=O [5p, (E)-2-((4-(((4-chloro-3-(trifluoromethyl)phenyl)imino)methyl)phenoxy)methyl)-3-methylquinazolin-4(3H)-one] | 4.32 ± 1.92% | 15.6 ± 2.66% | 22.6 ± 1.28% | 17.5 ± 2.67% | 163 to 164 °C | 
18 | COc1cc2ncnc(Nc3ccc(F)c(Cl)c3)c2cc1OCCCN1CCOCC1 [Gefitinib, reference compound] |  |  |  |  |  | Percentage of cells in G0/G1 (A549 cells [3]; A549, 5 μM): 58.50%; Percentage of cells in S (A549 cells [3]; A549, 5 μM): 12.03%; Percentage of cells in G0/G1 (A549 cells [3]; A549, 10 μM): 62.15%; Percentage of cells in S (A549 cells [3]; A549, 10 μM): 13.56%
19 | N[C@@H](Cc1ccccc1)C(=O)Nn1c(-c2ccc(F)cc2)nc2ccc(F)cc2c1=O [II] |  |  |  |  |  | IC50 (EGFR): 0.164 µM
20 | COc1ccc(-c2nnc(-n3c(-c4ccccc4)nc4cc(Cl)ccc4c3=O)s2)cc1 [I] |  |  |  |  |  | IC50 (EGFR): 0.32 µM
